From patent publication US5100879A, “Method of topically cleansing the human body” (K.K. Ueno Seiyaku Oyo Kenkyujo, priority 1987, dated 1992)
Read-outs that look alike come from different tables or passages of the source.

Experiments:
[1] = system: HTLV-III; test: Anti-AIDS activity, infected cell rate of MT-4 cells infected with HTLV-III at the 6th day (Example 9); assay type: cell-based; conditions: for anti-AIDS virus activity, in words: Example 9
Protocol: To MT-4 cells (30×10^4 /ml) cultured in RPMI-1640 medium containing 10% bovine serum, was inoculated HTLV-III, and the suspension was incubated at 37° C. for 1 hour to cause the adsorption of the virus. The cell:virus ratio was 500:1. The cells were then washed, and cultured with or without various doses of the test substances (same as those of Example 1) at 37° C. under 5% CO2 for 3 days, after which cell growth, viability, and percentage of infected cells were recorded. The infected cells were distinguished from the uninfected cells by an indirect immuno-fluorescence method. Thus, the cultured cells were fixed with cold methanol on a slide glass, reacted with antibody to the HTLV-III-specific antigens, and further with the secondary antibody (having a fluororescent label). The results are shown in FIGS. 9-29, wherein, .gradient., .increment. and .quadrature. show the controls without virus, and show the infection experiments with HTLV-III. The cell growth is indicated in number of cells, the viability (%) in number of viable cells ×100/number of total cells, and the infected cell rate (%) in number of fluorescent-positive cells x 100/number of total cells.
In order to examine the correlation between the anti-AIDS virus activity and the molecular structure (especially, molecular weight and S-content or number of sulfate group in this case) of various test substances including those used in Examples 1-7, the anti-AIDS activities were evaluated for the various naturally occurring polysaccharides, polysaccharides having a sulfate group, mucopolysaccharides, mucopolysaccharide sulfate, and mucopolysaccharide polysulfate. Further, similar experiments were carried out with various other sulfates which were synthetically obtained. The experimental procedures employed are identical to that in the preceding experiments. The cultured MT-4 cells were infected with HTLV-III and the inhibitory effects of various test substances on the infected cell rate (number of fluorescent cell×100/ total cell, %) were determined at the 6th day.

[2] = system: MT-4 cells; test: Cytotoxicity, MT-4 cells cultured without virus (Examples 4 and 8); assay type: cell-based, human; conditions: without virus; for Viability: 0 μg/ml gives 87; for Cell number: 0 μg/ml gives 124
From the text: The cell:virus ratio was 500:1. […] The infected cells were distinguished from the uninfected cells by an indirect immuno-fluorescence method. Thus, the cultured cells were fixed with cold methanol on a slide glass, reacted with antibody to the HTLV-III-specific antigens, and further with the secondary antibody (having a fluororescent label). […] The cell growth is indicated in number of cells, the viability (%) in number of viable cells ×100/number of total cells, and the infected cell rate (%) in number of fluorescent-positive cells x 100/number of total cells.

[3] = system: reverse transcriptase (authentic sample) derived from Avian Myeloblastosis Virus; test: Inhibition of reverse transcriptase activity (AMV), Examples 1 and 5; assay type: biochemical; conditions: FIGS. 30-33
Protocol: Test substances were assayed for inhibition against the enzyme activity of reverse transcriptase (authentic sample) derived from Avian Myeloblastosis Virus (abbrev. AMV), a kind of retrovirus. Five microliters of […] (template RNA), 4 μl of (dT)12-18 (primer DNA), and 1 μl of water were mixed with 5 μl of 0.5M Tris-HCl (pH 8.4) including 0.1% triton X-100, 5 μl of […], 5 μl of 20 […], 5 μl of water, and [^3 H]-TTP (tritium labeled thymidine triphosphate). To this mixture, test substances in solutions (final concentrations: 1, 0.1, and 0.01 μg/ml, 5 μl) or buffer solutions (control, 5 μl) at various doses were added. Then, 5 μl (one unit) of the authentic reverse transcriptase derived from AMV was added and the reaction mixture was incubated at 37° C. for 30 minutes. The reaction was stopped by addition of trichloroacetic acid, and after filtering the reaction mixture, the radioactivity of the polymerized (3H-T)n retained on the filter was measured using a liquid scintilation counter. As the test substances, sodium dextran sulfate (molecular weight: 5000), same (molecular weight: 8000), same (molecular weight: 500000), fucoidin, κ-carrageenan, λ-carrageenan, and .iota.-carrageenan were used.
The effects of the test substances on the reverse transcriptase activity of AMV were evaluated by the method described in Example 1.

[4] = system: mice; conditions: cited from earlier work
[5] = 10 μg/ml, 6th day, control without test substance 100%
[6] = 100 μg/ml, 6th day, control without test substance 100%
[7] = 10 μg/ml, 6th day, control without test substance 100%, 8640 min
[8] = 100 μg/ml, 6th day, control without test substance 100%, 8640 min
[9] = 1000 μg/ml, 6th day, control without test substance 100%
[10] = 1 μg/ml, listed as Sodium dextran sulfate (molecular weight: 5000, S-content: 13%)
[11] = 10 μg/ml, listed as Sodium dextran sulfate (molecular weight: 5000, S-content: 13%)
[12] = 100 μg/ml, listed as Sodium dextran sulfate (molecular weight: 5000, S-content: 13%)

O=C[C@H](O)[C@@H](O)[C@H](O)[C@H](O)COS(=O)(=O)O [Glucose-6-sulfate, reference compound]
activity at 10 µg/mL ([1]; Human immunodeficiency virus 1, MT4, 144 h, 10 μg/ml, 6th day, control without test substance 100%): 100%
activity at 100 µg/mL ([1]; Human immunodeficiency virus 1, MT4, 144 h, 100 μg/ml, 6th day, control without test substance 100%): 100%
activity at 1000 µg/mL ([1]; Human immunodeficiency virus 1, MT4, 144 h, 1000 μg/ml, 6th day, control without test substance 100%): 100%

OC[C@H]1O[C@H](OC[C@H]2O[C@H](O[C@]3(CO)O[C@H](CO)[C@@H](O)[C@@H]3O)[C@H](O)[C@@H](O)[C@@H]2O)[C@H](O)[C@@H](O)[C@H]1O [raffinose, reference compound]
anti-AIDS virus activity, in words [1]: None

.iota.-Carrageenan
Viability ([2]; 1 μg/ml): 94%
Cell number ([2]; 1 μg/ml): 135 ×10^4 cells/ml
Viability ([2]; 10 μg/ml): 93%
Cell number ([2]; 10 μg/ml): 128 ×10^4 cells/ml
Viability ([2]; 100 μg/ml): 80%
Cell number ([2]; 100 μg/ml): 144 ×10^4 cells/ml
Infected cell (%) [1, 5]: 100%
Infected cell (%) [1, 6]: 31%

Agarose [reference compound]
Infected cell (%) [1, 5]: 100%
Infected cell (%) [1, 6]: 100%

Alginic acid [reference compound]
Infected cell (%) [1, 5]: 100%
Infected cell (%) [1, 6]: 100%

Alginic acid sulfate
Infected cell (%) [1, 5]: 7%
Infected cell (%) [1, 6]: 4%
anti-AIDS virus activity, in words [1]: particularly strong

Chitin [reference compound]
Infected cell (%) [1, 5]: 100%
Infected cell (%) [1, 6]: 100%

Chitin sulfate
Infected cell (%) [1, 5]: 100%
Infected cell (%) [1, 6]: 81%

Chitosan [reference compound]
Infected cell (%) [1, 5]: 100%
Infected cell (%) [1, 6]: 100%

Chitosan sulfate
Infected cell (%) [1, 5]: 1%
Infected cell (%) [1, 6]: 1%
anti-AIDS virus activity, in words [1]: particularly strong

Chondroitin [reference compound]
Infected cell (%) [1, 5]: 100%
Infected cell (%) [1, 6]: 100%

Chondroitin polysulfate
reverse transcriptase inhibitory activity compared with the natural substances [3]: stronger activity
Infected cell (%) [1, 5]: 3%
Infected cell (%) [1, 6]: 1%
anti-AIDS virus activity, in words [1]: particularly strong

Chondroitin-4-sulfate [reference compound]
Infected cell (%) [1, 5]: 100%
Infected cell (%) [1, 6]: 100%

Chondroitin-4-sulfate polysulfate
Infected cell (%) [1, 5]: 2%
Infected cell (%) [1, 6]: 1%
anti-AIDS virus activity, in words [1]: particularly strong

Chondroitin-6-sulfate [reference compound]
Infected cell (%) [1, 5]: 100%
Infected cell (%) [1, 6]: 100%

Chondroitin-6-sulfate polysulfate
Infected cell (%) [1, 5]: 2%
Infected cell (%) [1, 6]: 1%
anti-AIDS virus activity, in words [1]: particularly strong

Dermatan sulfate [reference compound]
Infected cell (%) [1, 5]: 100%
Infected cell (%) [1, 6]: 80%

Dextran [Dextran 9,000, reference compound]
Infected cell (%) [1, 5]: 100%
Infected cell (%) [1, 6]: 100%

Dextran sulfate [Dextran sulfate 3,500]
Infected cell (%) [1, 7]: 100%
Infected cell (%) [1, 8]: 82%
Infected cell (%) [1, 9]: 1%

Dextran sulfate [Dextran sulfate 5,000]
Viability [2, 10]: 90%
Cell number [2, 10]: 123 ×10^4 cells/ml
Viability [2, 11]: 92%
Cell number [2, 11]: 127 ×10^4 cells/ml
Viability [2, 12]: 93%
Cell number [2, 12]: 121 ×10^4 cells/ml
Infected cell (%) [1, 7]: 18%
Infected cell (%) [1, 8]: 0%

Dextran sulfate [Dextran sulfate 8,000]
Infected cell (%) [1, 7]: 25%
Infected cell (%) [1, 8]: 0%

Dextran sulfate [Dextran sulfate 500,000]
Infected cell (%) [1, 7]: 20%
Infected cell (%) [1, 8]: 0%

Fucoidin
Viability ([2]; 1 μg/ml): 92%
Cell number ([2]; 1 μg/ml): 141 ×10^4 cells/ml
Viability ([2]; 10 μg/ml): 99%
Cell number ([2]; 10 μg/ml): 112 ×10^4 cells/ml
Viability ([2]; 100 μg/ml): 93%
Cell number ([2]; 100 μg/ml): 71 ×10^4 cells/ml
Infected cell (%) [1, 5]: 32%
Infected cell (%) [1, 6]: 1%

Glucose-polysulfate [reference compound]
Infected cell (%) [1, 5]: 100%
Infected cell (%) [1, 6]: 100%
Infected cell (%) [1, 9]: 100%

Heparitin sulfate [reference compound]
Infected cell (%) [1, 5]: 100%
Infected cell (%) [1, 6]: 90%

Hyaluronic acid [reference compound]
Infected cell (%) [1, 5]: 100%
Infected cell (%) [1, 6]: 100%

Hyaluronic acid sulfate
Infected cell (%) [1, 5]: 100%
Infected cell (%) [1, 6]: 70%

Keratan polysulfate
reverse transcriptase inhibitory activity compared with the natural substances [3]: stronger activity
Infected cell (%) [1, 5]: 80%
Infected cell (%) [1, 6]: 40%

Keratan sulfate [reference compound]
Infected cell (%) [1, 5]: 100%
Infected cell (%) [1, 6]: 80%

N-acetylglucosamine polysulfate [reference compound]
Infected cell (%) [1, 5]: 100%
Infected cell (%) [1, 6]: 100%
Infected cell (%) [1, 9]: 100%

colominic acid [reference compound]
anti-AIDS virus activity, in words [1]: None

dextran sulfate
anti-AIDS virus activity, in words [1]: particularly strong

inulin [reference compound]
anti-AIDS virus activity, in words [1]: None

methylcellulose [reference compound]
anti-AIDS virus activity, in words [1]: None

pectin [reference compound]
anti-AIDS virus activity, in words [1]: None

sodium chondroitin sulfate
acute toxicity (LD50) ([4]; intraperitoneally): ≥ 4,000 mg/kg
acute toxicity (LD50) ([4]; orally): ≥ 7,500 mg/kg

κ-Carrageenan
Viability ([2]; 1 μg/ml): 93%
Cell number ([2]; 1 μg/ml): 147 ×10^4 cells/ml
Viability ([2]; 10 μg/ml): 93%
Cell number ([2]; 10 μg/ml): 149 ×10^4 cells/ml
Viability ([2]; 100 μg/ml): 92%
Cell number ([2]; 100 μg/ml): 111 ×10^4 cells/ml
Infected cell (%) [1, 5]: 95%
Infected cell (%) [1, 6]: 1%

λ-Carrageenan
Viability ([2]; 1 μg/ml): 89%
Cell number ([2]; 1 μg/ml): 147 ×10^4 cells/ml
Viability ([2]; 10 μg/ml): 94%
Cell number ([2]; 10 μg/ml): 203 ×10^4 cells/ml
Viability ([2]; 100 μg/ml): 94%
Cell number ([2]; 100 μg/ml): 83 ×10^4 cells/ml
Infected cell (%) [1, 5]: 3%
Infected cell (%) [1, 6]: 1%
anti-AIDS virus activity, in words [1]: particularly strong
